Laboratory results: US5011828A, “Immunostimulating guanine derivatives, compositions and methods” (priority 1988, dated 1991)
In brackets after ≈: the same amount, converted by molar mass.

Assays:
murine spleen cells = assay: Mitogenicity: [3H]TdR uptake, murine system; type: cell-based, mouse; details: Table 4
[1] = test system: human peripheral blood lymphocytes (sheep red blood cells as antigen); assay: Antigen-specific adjuvanticity: direct anti-SRBC plaque forming cells, human system; type: cell-based; details: for Average 1 Log Plaque Values: Table 9, human, * = single study
Experimental: ^1 Studies were carried in a manner similar to those of Table 1,
except that a human lymphocyte preparation was used.
The results shown in Table 7, below, were obtained similarly to those discussed above, but using human lymphocytes. Some of those studies utilized lymphocytes from more than one individual, and are therefore reported with multiple entries.
Human peripheral blood lymphocytes (PBL) were prepared from normal heparinized venous blood by Ficoll-diatrizoate density gradient centrifugation. PBL were depleted of suppressor T cells bearing the histamine type 2 receptor by adhering them to the surfaces of histamine-rabbit serum albumin-coated plastic petri dishes (Cell-ect No. 2 kit; Seragen, Boston, Mass.) and by recovering the nonadherent cells by panning as described by Wysocki and Sato, Proc. Natl. Acad. Sci. USA, 75:2844 (1978) and modified by Cavagnaro and Osband, Biotechniques, January/February:30 (1983).
The tissue culture medium employed in these studies for human lymphocytes was prepared as follows: One hundred milliliters (ml) contained 87.9 ml RPMI 1640 (Flow Laboratories, Rockville, Md.), 0.1 ml 100×glutamine,1.0 ml of 1.0 M HEPES buffer (Microbilogical Associates, Betheseda, Md.), 1.0 ml of water containing 10^4 U of penicillin G and 10^4 micrograms of streptomycin, and 10 ml of fresh autologous heat-inactivatedplasma. For evaluation of the primary humoral immune response to SRBC, lymphoid cells prepared as above were cultured at a density of 2×10^6 /ml in a volume of 1.0 ml containing 5×10^6 SRBC as antigen (Colorado Serum Co., Denver, Colo.) together with IL-2 (a partially purified preparation of human IL-2 that was free of interferon-gamma activity was obtained from Electro-Nucleonics, Inc., Silver Spring, Md.) and the guanine nucleoside derivative.
(§1) Assay of plaque forming cells (PFC). PFC secreting antibodies against SRBC were evaluated after 4 or 5 days of culture using a modification of the hemolytic plaque assay of Jerne and Nordin, Science, 140:405 (1963). The cells were brought up in complete medium before plaquing; they were plaqued in standard low Mr agarose (Bio-Rad Laboratories, Richmond Calif.), and were incubated in SRBC-absorbed guinea pig complement for one hour after a 1.5 hour incubation without complement.

[2] = test system: CBA/CaJ mouse spleen cells; assay: Primary humoral response to SRBC, immunocompetent CBA/CaJ spleen cells (comparison in FIG. 2); type: cell-based
Excerpt: (§2) FIG. 2 is a graph that illustrates the in vitro reconstitution of the primary humoral immune response to a specific antigen, SRBC, in cultured immunodeficient CBA/N mouse spleen cells (dotted line) obtained by contacting those cells with an aqueous composition containing 7a8oGuo, in the further presence of SRBC. A similar study using spleen cells from immunocompetent CBA/CaJ mice (solid line) is also shown in the graph for comparison. The points on each line represent the PFC value obtained in the presence of the indicated amount of 7a8oGuo plus SRBC. The ordinate and abscissa are as in FIG. 1. Further details of this study are provided hereinafter.
(§3) Cultures of spleen cells from male and female homzygous CBA/N and male mice heterozygous for the CBA/N gene, called the xid gene, (male mice bear the X chromosome) was prepared as described in the Materials and Methods Section. 0.1 Milliters of a 0.1 percent (v/v) SRBC suspension alone or the SRBC suspension plus incremental amounts of 7a8oGuo were added to the cultures, using 5×10^6 cells/ml. Direct anti-SRBC […] per culture were assessed after 4 days of culture.
The results of this study comparing cells from CBA/N mice with a preparation of spleen cells from CBA/CaJ mice, are shown in FIG. 2.

[3] = test system: CBA/CaJ thymocytes (irradiated BDF1 splenocyte stimulators); assay: T cell proliferation in mixed leukocyte cultures, CBA/CaJ thymocytes; type: cell-based, mouse; details: Study 4, responder +, stimulator +
Excerpt: A third and fourth study utilized thymocytes from CBA/CaJ mice as the stimulated (responder) cells, and irradiated BDFl mouse spleen cells as the stimulator cells. Two guanosine derivatives of the present invention, 7a8MGuo and 7a8oGuo, were used for these studies, with 8MGuo serving as positive control for one of the studies.
However, in the presence of interleukin-2 (IL-2), those cells develop responsiveness to allogeneic stimulation. The present studies utilizing thymocytes were therefore carried out in the presence of a co-stimulating amount of IL-2.
^1 Plus signs (+) are utilized to indicate the presence of the
^3 Allogeneic cells used to costimulate proliferation, after exposure
T Helper Cell Activation. 1.5×10^5 viable spleen cells from SJL mice or CBA/CaJ mouse thymocytes were cultured with or without an equal number of irradiated (2500 rads) spleen cells from CBA/CaJ or BDFl mice respectively, in 0.2 ml of culture medium in the presence of incremental concentrations of the exemplary 7,8-disubstituted guanine derivatives. The lymphocyte culture medium utilized was that described before, and was further supplemented with 2-mercaptoethanol to a final concentration of 50 uM. Thymocyte cultures also contained 10 percent (v/v) of a concanavalin A-conditioned rat spleen cell medium sold under the name Rat T Cell Monoclone by Collaborative Research. Following 90 hours of culture, one microCurie [^3 H]TdR per culture was admixed, and the resulting culture was maintained for a further six hour time period.
The cultures were harvested with a Brandel cell harvester (M24V, Biological Research and Development Laboratories, Rockville, Md.) onto glass fiber filter disks. Filter disks were transferred to plastic scintillation vials, covered with liquid scintillation cocktail, and counted in a Beckman LS5700 liquid scintillation counter.

[4] = test system: murine lymphocytes (sheep red blood cells as antigen); assay: Antigen-specific adjuvanticity: direct anti-SRBC plaque forming cells, murine system; type: cell-based, mouse; details: for Peak Direct anti-SRBC PFC/Culture: Table 5, murine system, at peak concentration; for Direct Anti-SRBC PFC/Culture: Table 8, 1 × 10^-5 M; for Average 1 Log Plaque Values: Table 9, murine, * = single study
Excerpt: ^1 Adjuvanticities against sheep red blood cells [SRBC] measured in
direct plaqueforming cells per culture of lymphocytes from the mouse
strains shown. Details of the procedure are provided in the Materials and
Methods Section. Standard errors from the enumerated mean values are show
A large number of comparisons of adjuvanticity using human and murine lymphocytes as the source of leukocytes have been carried out using compounds of the present invention, as well as with new compounds excluded from the present invention. […] Interstudy comparisons are however useful for showing trends and large differences. Tables 5, 6 and 7, hereinafter, provide exemplary data from such studies in which only the activity at the peak concentration is shown for each compound and the results for the controls are omitted.
Lymphocyte cultures. The serum-containing culture medium water prepared to contain the following per 100 milliliters: 91.9 milliliters RPMI 1640 (Flow Laboratories, Inc., Rockville, Md.), 0.1 milliliters of 100×glutamine, 1.0 milliliter of 100×sodium pyruvate, 1 0 milliliter of 50×nonessential amino acids, 1.0 milliliter of water containing 10^4 units of penicillin G and 10^4 micrograms of streptomycin, and 5.0 milliliters of a supportive lot of fetal calf serum (FCS). These ingredients were admixed to apparent homogeneity. Spleen cell suspensions and populations enriched for splenic B cells were prepared as described in Goodman et al., J. Immunol., 121:1905 (1978).
For evaluation of the primary humoral immune response to sheep erythrocytes (SRBC), 5×10^6 to 10^7 murine spleen cells were cultured in 1.0 milliliter of 5% FCS-containing medium for 4 or 5 days in the presence and absence of immunogen. Cells were incubated in culture trays (Costar, Cambridge, Mass.) at 37° C. in a humidified atmosphere of 10% CO2 in air using tissue culture boxes (CBS Scientific, Del Mar, Calif.) that were rocked at a frequency of 7 cycles per minute. Pooled SRBC are available from the Colorado Serum Co., Denver Colo.
as §1

physchem = type: physicochemical, human; details: for solubility at 18 h: human, urine
Excerpt: Solubilities in urine could be expected to be lower than those for water due to the relatively higher salt content in urine than is found in water.
Each sample was filtered through a 5 micron pore-sized filter, diluted as necessary with the HPLC mobile phase, and then quantified by HPLC.

CBA/N mouse spleen cells = assay: In vitro reconstitution of primary humoral immune response to SRBC, immunodeficient CBA/N spleen cells (FIG. 2); type: cell-based
Excerpt: as §2, §3

lymphocytes = details: cited from earlier work
[5] = Table 7, second group, person a
[6] = Table 7, second group, person b
[7] = Table 7, second group, person c

solubility at 18 h (physchem) | Structure (SMILES) | [3H] TdR Uptake (murine spleen cells; 3 × 10^-4 M) | [3H] TdR Uptake (murine spleen cells; 10^-3 M) | [3H] TdR Uptake (murine spleen cells; 10^-4 M) | Peak Direct anti-SRBC PFC/Culture ([1]; Table 7, first group, person a) | Peak Direct anti-SRBC PFC/Culture ([1]; Table 7, first group, person b) | Peak Direct anti-SRBC PFC/Culture ([1]; Table 7, first group, person c) | Peak Direct anti-SRBC PFC/Culture [1, 5] | Peak Direct anti-SRBC PFC/Culture [1, 6] | Peak Direct anti-SRBC PFC/Culture [1, 7] | Average 1 Log Plaque Values [1] | Peak Direct anti-SRBC PFC/Culture [4] | Direct Anti-SRBC PFC/Culture [4] | Average 1 Log Plaque Values [4] | further results
16.3 mg/mL (≈ 48 mM) | C=CCn1c(=O)n([C@@H]2O[C@H](CO)[C@@H](O)[C@H]2O)c2nc(N)[nH]c(=O)c21 [7a8oGuo, 7-(2-Propenyl)-8-oxoguanosine] | 59,150 ± 420 cpm/culture | 51,340 ± 1050 cpm/culture | 39,830 ± 780 cpm/culture | 3038 ± 288 PFC/Culture | 9250 ± 1010 PFC/Culture | 4831 ± 270 PFC/Culture | 477 PFC/Culture | 10,313 PFC/Culture | 4413 PFC/Culture | 22,640 ± 4187 per micromole | 1827 PFC/Culture | 1387 PFC/Culture | 98,237 ± 42,041 per micromole | peak adjuvanticity values greater as compared to 7m8oGuo ([1]; human system (Table 3)): about 100%; concentration giving the similar PFC/culture values [2]: 10^-5 M; [3H] TdR Uptake ([3]; 10^-4 M): 10,000 ± 800 counts per minute; [3H] TdR Uptake ([3]; 10^-5 M): 8000 ± 300 counts per minute; [3H] TdR Uptake ([3]; 10^-6 M): 8300 ± 300 counts per minute; solubility in human urine, in words (physchem): about a three-fold greater solubility than did 7m8oGuo; concentration giving the similar PFC/culture values (CBA/N mouse spleen cells): 30 µM
– | Nc1nc2c(nc(Br)n2[C@@H]2O[C@@H]3COP(=O)(O)O[C@H]3[C@H]2O)c(=O)[nH]1 [8-BrcGMP, 8-Bromoguanosine-3',5'-cyclic monophosphate] | – | – | – | – | – | – | – | – | – | – | – | – | – | lymphocyte mitogenicity, in words (lymphocytes): weak synthetic intracellular lymphocyte mitogen
4.88 mg/mL (≈ 15.6 mM) | Cn1c(=O)n([C@@H]2O[C@H](CO)[C@@H](O)[C@H]2O)c2nc(N)[nH]c(=O)c21 [7m8oGuo, 7-methyl-8-oxoguanosine, reference compound] | 39,620 ± 1160 cpm/culture | 35,070 ± 1830 cpm/culture | 23,640 ± 770 cpm/culture | 1250 ± 125 PFC/Culture | 830 ± 67 PFC/Culture | 1225 ± 175 PFC/Culture | 528 PFC/Culture | 297 PFC/Culture | 263 PFC/Culture | 867 ± 217 per micromole | 723 ± 143 PFC/Culture | 145 PFC/Culture | 22,359 ± 5154 per micromole | –
